# Reference: PubChem BioAssay AID652125 (The Scripps Research Institute Molecular Screening Center, 2013)
# Calls of active or inactive are those of the source. The rule behind the calls is not given here.
# Target: Perilipin-1 (Homo sapiens) + 1-acylglycerol-3-phosphate O-acyltransferase ABHD5 (Homo sapiens) (UniProt O60240+Q8WTS1)
# Experiment: PubChem AID 652125
# Conditions: biochemical ABHD5-PLIN1 interaction, luminescence
row,IC50,SMILES
1,1.73 µM,CN1C(=O)c2ccccc2Sc2ccc(NC(=O)NCCCc3ccccc3)cc21
2,inactive,CCCCCCCNC(=O)Nc1ccc2c(c1)Sc1ccccc1C(=O)N2C
3,> 39.8 µM (inactive),CCCCCNC(=O)Nc1ccc2c(c1)Sc1ccccc1C(=O)N2C
4,> 39.8 µM (inactive),CN1C(=O)c2ccccc2Oc2ccc(NC(=O)c3cccs3)cc21
5,> 39.8 µM (inactive),CCCC(=O)Nc1ccc2c(c1)C(=O)N(C)c1ccccc1O2
6,3.57 µM,CN1C(=O)c2ccccc2Sc2ccc(NC(=O)NCCc3ccccc3)cc21
7,4.22 µM,NS(=O)(=O)c1ccc(NC(=O)c2nc(S(=O)(=O)Cc3ccccc3)ncc2Cl)cc1
8,> 39.8 µM (inactive),CN1C(=O)c2ccccc2Oc2ccc(NC(=O)c3cc4ccccc4[nH]3)cc21
9,> 39.8 µM (inactive),CC(C)N1C(=O)c2ccccc2Oc2ccc(NC(=O)c3ccccc3)cc21
10,> 39.8 µM (inactive),CCCCCCNC(=O)Nc1ccc2c(c1)Sc1ccccc1C(=O)N2C
11,> 39.8 µM (inactive),CCCC(=O)Nc1ccc2c(c1)C(=O)N(C)c1cc(C)ccc1O2
12,2.29 µM,Cc1ccc(CS(=O)(=O)c2ncc(Cl)c(C(=O)Nc3cccc4ccccc34)n2)cc1
13,inactive,CCCNC(=O)Nc1ccc2c(c1)N(CC)C(=O)c1ccccc1S2
14,4.31 µM,CN1C(=O)c2ccccc2Sc2ccc(NC(=O)NCCc3cccs3)cc21
15,2.2 µM,O=C(Nc1ccc2ccccc2c1)c1nc(S(=O)(=O)Cc2ccccc2)ncc1Cl
16,> 39.8 µM (inactive),COc1ccc(OCC(=O)Nc2ccc3c(c2)N(C(C)C)C(=O)c2ccccc2O3)cc1

# The next lines start with the molecule.
row,SMILES,IC50
1,COc1ccc(CCNC(=O)c2nc(S(=O)(=O)Cc3ccc(F)cc3)ncc2Cl)cc1OC,2.5 µM
2,CCCS(=O)(=O)c1ncc(Cl)c(C(=O)Nc2ccc(C(=O)OC)cc2)n1,5.42 µM
3,Cc1ccc(CS(=O)(=O)c2ncc(Cl)c(C(=O)NCc3ccc4c(c3)OCO4)n2)cc1,3.2 µM
4,CN(C)CCCN(C(=O)Cc1ccc(F)cc1)c1nc2ccc(Cl)cc2s1,inactive
5,CCc1ccc2c(CC(=O)N3CCN(S(=O)(=O)c4ccc5c(c4)OCCO5)CC3)coc2c1,2.54 µM
6,CC(NC(=O)CN1CCN(S(=O)(=O)c2ccc3c(c2)OCCCO3)CC1)c1cc2ccccc2o1 (configuration not stated),> 39.8 µM (inactive)
7,CN(C)CCCN(C(=O)C1CCCCC1)c1nc2cc(Cl)ccc2s1,> 39.8 µM (inactive)
8,CCS(=O)(=O)c1ncc(Cl)c(C(=O)Nc2ccc(C)cc2)n1,3.53 µM
9,CCS(=O)(=O)c1ncc(Cl)c(C(=O)Nc2ccc(S(N)(=O)=O)cc2)n1,6.72 µM
10,COc1ccc(CC(=O)N2CCCN(S(=O)(=O)c3ccc(C)cc3)CC2)cc1OC,> 39.8 µM (inactive)
11,O=C(Cc1cccc(F)c1)N1CCN(S(=O)(=O)c2ccc3c(c2)OCCO3)CC1,> 39.8 µM (inactive)
12,Cc1ccc(CS(=O)(=O)c2ncc(Cl)c(C(=O)N3CCN(C)CC3)n2)cc1,5.75 µM
13,Cc1ccc(NC(=O)c2nc(S(C)(=O)=O)ncc2Cl)cc1,3.5 µM
14,CN(C)CCCN(C(=O)c1cc2ccccc2oc1=O)c1nc2ccc(Cl)cc2s1,inactive
15,CCCS(=O)(=O)c1ccc(Cl)c(C(=O)Nc2ccc(C(=O)OCC)cc2)c1,5.32 µM
16,O=C(c1nc(S(=O)(=O)Cc2ccccc2)ncc1Cl)N(Cc1ccccc1)Cc1ccco1,1.41 µM

row,SMILES,IC50
1,CCCC(=O)N(CCCN1CCOCC1)c1nc2ccc(Cl)cc2s1,> 39.8 µM (inactive)
2,O=C(Cc1ccc2c(c1)CCCC2)N1CCN(S(=O)(=O)c2ccc3c(c2)OCCO3)CC1,inactive
3,CN(C)CCCN(C(=O)C1CCCCC1)c1nc2cc(Br)ccc2s1,inactive
4,Cc1ccc2cc(CC(=O)N3CCN(S(=O)(=O)c4ccc5c(c4)OCCO5)CC3)oc2c1,inactive
5,COc1ccc(CC(=O)N2CCN(S(=O)(=O)c3ccc4c(c3)OCCCO4)CC2)cc1,> 39.8 µM (inactive)
6,Cc1ccc(CS(=O)(=O)c2ncc(Cl)c(C(=O)Nc3cccc(C(F)(F)F)c3)n2)cc1,2.11 µM
7,O=C(CCc1nc2ccccc2s1)N1CCN(S(=O)(=O)c2ccc3c(c2)OCCO3)CC1,inactive
8,O=C(CCn1cnc2ccccc21)N1CCN(S(=O)(=O)c2ccc3c(c2)OCCO3)CC1,> 39.8 µM (inactive)
9,CN(C(=O)c1nc(S(C)(=O)=O)ncc1Cl)c1ccccc1,3.43 µM
10,Cc1ccc(CS(=O)(=O)c2ncc(Cl)c(C(=O)Nc3nnc(C(C)C)s3)n2)cc1,> 39.8 µM (inactive)
11,Cc1ccc2c(CC(=O)N3CCN(S(=O)(=O)c4ccc5c(c4)OCCCO5)CC3)coc2c1C,3.74 µM
12,O=C(C1COc2ccccc2O1)N1CCN(S(=O)(=O)c2ccc3c(c2)OCCO3)CC1 (configuration not stated),> 39.8 µM (inactive)
13,O=C(CCc1c[nH]c2ccccc12)N1CCN(S(=O)(=O)c2ccc3c(c2)OCCO3)CC1,> 39.8 µM (inactive)
14,CS(=O)(=O)c1ncc(Cl)c(C(=O)Nc2ccc(C(F)(F)F)cc2)n1,1.42 µM
15,CN(C)CCCN(C(=O)CCc1ccccc1)c1nc2ccc(Cl)cc2s1,inactive
